Reference: PubChem BioAssay (NCI)
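At the GI50, growth is halved. Definition used: TGI = concentration required for complete inhibition of growth.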

Legend:
Assay in all cases: growth of human tumour cells (NCI), 384-well format
HS 578T breast = tested on: HS 578T breast
786-0 renal = tested on: 786-0 renal
MDA-MB-468 breast = tested on: MDA-MB-468 breast
RXF 393 renal = tested on: RXF 393 renal
NCI/ADR-RES ovarian = tested on: NCI/ADR-RES ovarian
MCF7 breast = tested on: MCF7 breast
HCC-2998 colon = tested on: HCC-2998 colon
ACHN renal = tested on: ACHN renal
KM12 colon = tested on: KM12 colon
A549 NSCLC = tested on: A549 NSCLC
SF-539 CNS = tested on: SF-539 CNS
DU-145 prostate = tested on: DU-145 prostate
NCI-H522 lung = tested on: NCI-H522 lung
CAKI-1 renal = tested on: CAKI-1 renal
MOLT-4 leukemia = tested on: MOLT-4 leukemia
RPMI-8226 leukemia = tested on: RPMI-8226 leukemia
LOX IMVI melanoma = tested on: LOX IMVI melanoma
HCT-116 colon = tested on: HCT-116 colon
OVCAR-8 ovarian = tested on: OVCAR-8 ovarian
SF-295 CNS = tested on: SF-295 CNS
SK-MEL-5 melanoma = tested on: SK-MEL-5 melanoma
HOP-62 NSCLC = tested on: HOP-62 NSCLC
SNB-19 CNS = tested on: SNB-19 CNS
NCI-H460 NSCLC = tested on: NCI-H460 NSCLC
A498 renal = tested on: A498 renal
COLO 205 colon = tested on: COLO 205 colon
NCI-H322M lung = tested on: NCI-H322M lung
SN12C renal = tested on: SN12C renal
CCRF-CEM leukemia = tested on: CCRF-CEM leukemia
OVCAR-3 ovarian = tested on: OVCAR-3 ovarian
SNB-75 CNS = tested on: SNB-75 CNS
UACC-257 melanoma = tested on: UACC-257 melanoma
SK-MEL-28 melanoma = tested on: SK-MEL-28 melanoma
HCT-15 colon = tested on: HCT-15 colon
NCI-H226 lung = tested on: NCI-H226 lung
T-47D breast = tested on: T-47D breast
SF-268 CNS = tested on: SF-268 CNS
M14 melanoma = tested on: M14 melanoma
K-562 leukemia = tested on: K-562 leukemia
HL-60(TB) leukemia = tested on: HL-60(TB) leukemia
SW-620 colon = tested on: SW-620 colon
MDA-MB-435 melanoma = tested on: MDA-MB-435 melanoma
MDA-MB-231 breast = tested on: MDA-MB-231 breast
UACC-62 melanoma = tested on: UACC-62 melanoma
NCI-H23 lung = tested on: NCI-H23 lung
PC-3 prostate = tested on: PC-3 prostate
TK-10 renal = tested on: TK-10 renal
UO-31 renal = tested on: UO-31 renal
IGROV1 ovarian = tested on: IGROV1 ovarian
SK-OV-3 ovarian = tested on: SK-OV-3 ovarian
OVCAR-4 ovarian = tested on: OVCAR-4 ovarian
HOP-92 NSCLC = tested on: HOP-92 NSCLC
MALME-3M melanoma = tested on: MALME-3M melanoma
BT-549 breast = tested on: BT-549 breast
EKVX NSCLC = tested on: EKVX NSCLC
HT29 colon = tested on: HT29 colon
U251 glioblastoma = tested on: U251 glioblastoma

## COc1cc(N2CCC(N)CC2)ccc1Nc1ncc(Cl)c(-c2c[nH]c3ccccc23)n1
HS 578T breast
  GI50: 651 nM
  TGI: 1870 nM
786-0 renal
  GI50: 1010 nM
  TGI: 2190 nM
MDA-MB-468 breast
  GI50: 667 nM
  TGI: 1930 nM
RXF 393 renal
  GI50: 739 nM
  TGI: 2050 nM
NCI/ADR-RES ovarian
  GI50: 1480 nM
  TGI: 2810 nM
MCF7 breast
  GI50: 59.5 nM
  TGI: 1220 nM
HCC-2998 colon
  GI50: 349 nM
  TGI: 1680 nM
ACHN renal
  GI50: 535 nM
  TGI: 1860 nM
KM12 colon
  GI50: 209 nM
  TGI: 679 nM
A549 NSCLC
  GI50: 858 nM
  TGI: 2120 nM
SF-539 CNS
  GI50: 453 nM
  TGI: 1820 nM
DU-145 prostate
  GI50: 389 nM
  TGI: 1710 nM
NCI-H522 lung
  GI50: 221 nM
  TGI: 1230 nM
CAKI-1 renal
  GI50: 252 nM
  TGI: 1070 nM
MOLT-4 leukemia
  GI50: 437 nM
  TGI: 1640 nM
RPMI-8226 leukemia
  GI50: 476 nM
  TGI: 1580 nM
LOX IMVI melanoma
  GI50: 541 nM
  TGI: 1860 nM
HCT-116 colon
  GI50: 361 nM
  TGI: 1580 nM
OVCAR-8 ovarian
  GI50: 1170 nM
  TGI: 2410 nM
SF-295 CNS
  GI50: 1450 nM
  TGI: 2770 nM
SK-MEL-5 melanoma
  GI50: 610 nM
  TGI: 2040 nM
HOP-62 NSCLC
  GI50: 1220 nM
  TGI: 2490 nM
SNB-19 CNS
  GI50: 1570 nM
  TGI: 2940 nM
NCI-H460 NSCLC
  GI50: 184 nM
  TGI: 1390 nM
A498 renal
  GI50: 296 nM
  TGI: 1330 nM
COLO 205 colon
  GI50: 44.1 nM
  TGI: 1070 nM
NCI-H322M lung
  GI50: 254 nM
  TGI: 1420 nM
SN12C renal
  GI50: 513 nM
  TGI: 1860 nM
CCRF-CEM leukemia
  GI50: 886 nM
  TGI: 2100 nM
OVCAR-3 ovarian
  GI50: 666 nM
  TGI: 2040 nM
SNB-75 CNS
  GI50: 322 nM
  TGI: 1440 nM
UACC-257 melanoma
  GI50: 789 nM
  TGI: 2100 nM
SK-MEL-28 melanoma
  GI50: 1270 nM
  TGI: 2530 nM
HCT-15 colon
  GI50: 265 nM
  TGI: 1460 nM
NCI-H226 lung
  GI50: 112 nM
  TGI: 663 nM
T-47D breast
  GI50: 1180 nM
  TGI: 2410 nM
SF-268 CNS
  GI50: 1150 nM
  TGI: 2400 nM
M14 melanoma
  GI50: 388 nM
  TGI: 1620 nM
K-562 leukemia
  GI50: 876 nM
  TGI: 2130 nM
HL-60(TB) leukemia
  GI50: 21.4 nM
  TGI: 424 nM
SW-620 colon
  GI50: 254 nM
  TGI: 1330 nM
MDA-MB-435 melanoma
  GI50: 395 nM
  TGI: 1790 nM
MDA-MB-231 breast
  GI50: 1080 nM
  TGI: 2300 nM
UACC-62 melanoma
  GI50: 385 nM
  TGI: 1770 nM
NCI-H23 lung
  GI50: 318 nM
  TGI: 1760 nM
PC-3 prostate
  GI50: 1090 nM
  TGI: 2330 nM
TK-10 renal
  GI50: 988 nM
  TGI: 2180 nM
UO-31 renal
  GI50: 655 nM
  TGI: 1950 nM
IGROV1 ovarian
  GI50: 284 nM
  TGI: 1000 nM
SK-OV-3 ovarian
  GI50: 334 nM
  TGI: 1440 nM
OVCAR-4 ovarian
  GI50: 1210 nM
  TGI: 2480 nM
HOP-92 NSCLC
  GI50: 377 nM
  TGI: 1670 nM
MALME-3M melanoma
  GI50: 172 nM
  TGI: 1510 nM
BT-549 breast
  GI50: 1140 nM
  TGI: 2360 nM
EKVX NSCLC
  GI50: 215 nM
  TGI: 1470 nM
HT29 colon
  GI50: 55.9 nM
  TGI: 1350 nM
U251 glioblastoma
  GI50: 1210 nM
  TGI: 2480 nM
